Reference: US20220016079A1, “COMBINATION TREATMENT OF HIV INFECTIONS” (priority 2018, published 2022)
Where “and” joins values, the source holds several entries; their conditions need not be identical. Equal entries are not always repeated.

Experiments:
[1] = tested on: latent HIV in resting CD4+ T-lymphocytes; assay: HIV reactivation in resting CD4+ T-lymphocytes derived from ART-treated HIV patients (HIV RNA in supernatant, qPCR); assay type: cell-based, human
Description: The experiments of this example analyzed the ability of DEB10-1143 at reactivating latent HIV in resting CD4+ T-lymphocytes isolated from peripheral blood monocytic cells (PBMCs) derived from HIV patients currently under ART. Drug titration and kinetic studies were conducted. Debio-1143 was tested alone or in combination with ART.
Method: Resting CD4+ T cells were isolated using the EasySep™ Human Resting CD4+ T Cell Isolation Kit, which is designed to isolate resting CD4+ T cells from fresh or previously frozen PBMCs by immunomagnetic negative selection. The EasySep™ procedure involves labeling unwanted cells with antibody complexes and magnetic particles. The magnetically labeled cells are separated from the untouched desired cells by using an EasySep™ magnet and simply pouring or pipetting the desired cells into a new tube. Isolated resting CD4+ T cells (50,000 cells/50 μL) were treated in duplicate for 0, 24, 48 and 72 h with increasing concentrations of DEB10-1143 (0 to 20.5 μM) used alone or in combination with ART (20 μM TDF, 10 μM FTC and 1 μM Raltegravir). Amounts of virions released from cells were quantified at the indicated time points by quantifying HIV RNA levels (HIV RNA copies/mL) in supernatant of cell culture using one-step reverse transcriptase quantitative real-time PCR (ABI custom TaqMan Assays-by-Design) according to the manufacturer's instructions. Primers were 5-[…]-3 and 5-[…]-3, and MGB probe 5-FAM-[…]-Q-3, where FAM is 6-carboxyfluorescein.

[2] = tested on: HIV-1 (JR-CSF); assay: Efficacy study in HIV-1 infected humanized BLT mice: HIV-1 loads in blood (qPCR); assay type: in vivo; details: 4 weeks of treatment starting 12 weeks after infection; n=8 per group
Description: Methods: Humanized BLT mice were generated by implanting human fetal liver and thymus tissues under the kidney capsule of an immunodeficient NOD scid gamma (NSG=NOD.Cg-Prkdc^scidII12rg^tm1Wjl/SzJ) mouse, followed by an administration of autologous human fetal liver CD34+ cells (human hematopoietic stem cells). In BLT mice, T cell education occured in the human thymic tissue, resulting in complete systemic reconstitution of all major human hematopoietic lineages including T, B, monocyte/macrophage, dendritic, and natural killer cells. The extensive systemic and genital mucosal reconstitution with human lymphoid cells rendered female humanized BLT mice susceptible to both vaginal and rectal HIV infection. […]
(§1) R5 HIV (JR-CSF) was produced by 293T transfection and quantified by p24 ELISA. Humanized mice were infected with JR-CSF (200 ng of p24) and viral replication quantified weekly by qPCR for up to 16 weeks.
Methods: Thirty-two BLT mice were infected with HIV-1. 12 weeks later mice were split in 4 groups (n=8), treated with various regimen and analyzed for 6 weeks. […] Body weight, HIV-1 loads and PD-1 expression on CD8+ T cells were analyzed once weekly. […] The remaining mice (4×5=20) were sacrificed 2 weeks after treatment completion and viral RNA levels in organ reservoirs (spleen, thymic organoid, lung, spleen, lymph nodes and liver) were quantified by qPCR.

[3] = tested on: HIV-1 (JR-CSF); assay: Efficacy study in HIV-1 infected humanized BLT mice: viral RNA levels in organ reservoirs (qPCR); assay type: in vivo
Description: Methods: Humanized BLT mice were generated by implanting human fetal liver and thymus tissues under the kidney capsule of an immunodeficient NOD scid gamma (NSG=NOD.Cg-Prkdc^scidII12rg^tm1Wjl/SzJ) mouse, followed by an administration of autologous human fetal liver CD34+ cells (human hematopoietic stem cells). In BLT mice, T cell education occured in the human thymic tissue, resulting in complete systemic reconstitution of all major human hematopoietic lineages including T, B, monocyte/macrophage, dendritic, and natural killer cells. The extensive systemic and genital mucosal reconstitution with human lymphoid cells rendered female humanized BLT mice susceptible to both vaginal and rectal HIV infection.
Humanized BLT mice were generated by implanting 1-mm^3 pieces of human fetal liver and thymus tissues (Advanced Bioscience Resources) under the kidney capsule in 6 to 8-week-old female NSG mice (Jackson Laboratories) bred at The Scripps Research Institute (TSRI). Each cohort was produced with tissues from a single donor. CD34+ HSPC were purified from autologous fetal liver tissue, isolated by magnetic bead selection for CD34+ cells (Miltenyi), phenotyped cytometrically for engraftment success (CD34+, HLA DR-), and cryopreserved until injection (200,000 CD34+ cells) into mice 3 weeks after thymus/liver implantation. Human reconstitution was verified by flow cytometry (CD45+, CD3+, CD4+ and CD8+) in peripheral blood of the mice.
as §1
Methods: Thirty-two BLT mice were infected with HIV-1. 12 weeks later mice were split in 4 groups (n=8), treated with various regimen and analyzed for 6 weeks. Group A received both vehicles for 4 weeks. Group B received Debio-1143 (100 mg/kg; QD1-5, p.o.) for 4 weeks (Debio-1143 was given 5 days a week for 4 weeks). Group C received the anti-PD-1 antibody (200 μg/dose, i.p., BIW) for 4 weeks. Group D received the combination of Debio-1143 (100 mg/kg; QD1-5, p.o.) together with the anti-PD-1 antibody (200 μg/dose i.p. BIW) for 4 weeks. Body weight, HIV-1 loads and PD-1 expression on CD8+ T cells were analyzed once weekly. After the 4 weeks of treatment, three mice per group were sacrificed for bioanalytical assessments. The remaining mice (4×5=20) were sacrificed 2 weeks after treatment completion and viral RNA levels in organ reservoirs (spleen, thymic organoid, lung, spleen, lymph nodes and liver) were quantified by qPCR.

[4] = tested on: latent HIV-1 in 2D10 cells; assay: HIV-1 reactivation in latent GFP-reporter 2D10 cells, Debio 1143 and other LRAs alone or in combination; assay type: cell-based; details: single agents, 48 h
Description: We compared the efficacy of Debio-1143 at reversing HIV-1 latency with that of other LRAs. We then analyzed the cytotoxicity of Debio-1143 with that of the other LRAs on 2D10 cells. Drug titration was conducted.
Methods: HIV-1 latent GFP-reporter 2D10 cells (100,000 cells/100 μL) were treated in triplicate for 48 h with increasing concentrations of either only Debio-1143 or the LRAs (2000 nM or 20000 nM), or with Debio 1143 (2000 nM or 20000 nM) in combination with the LRAs at a single predetermined concentration (see Table 2). HIV reactivation was analyzed via GFP expression by flow cytometry.

[5] = tested on: HIV-infected resting CD4+ T cells (rCD4); assay: Lysis of HIV-infected resting CD4+ T cells (rCD4) by CD8+ T cells and NK cells (LDH activity); assay type: cell-based, human; details: 0, 1 and 10 μM, mono- or co-cultures of rCD4, CD4+, 24 and 48 h
Description: It was investigated whether the Debio-1143-induced reversal of HIV-1 latency, by restoring HIV-1 protein production in rCD4, would permit viral peptide exposure with MHC on infected rCD4+ T cells and allow recognition and lysis by CD8+ T cells and/or NK cells.
Method: Human CD4+ T cells, CD8+ T cells and NK cells were isolated following manufacturer's instruction (beads coated with specific antibodies) from one blood donor (500 mL). Ninety percent of CD4+ T cells were infected with HIV-1 (JR-CSF) (1 μg of p24), incubated for 4 days to allow establishment of infection, and then treated with ART for 3 days. Suppression of replication was verified by p24 ELISA in supernatants. rCD4 were then isolated following manufacturer's instruction. Infected and ART-treated rCD4 were mixed with uninfected CD4+ T cells, CD8+ T cells and NK cells a 1:1 ratio (100,000 cells) for 24 and 48 in triplicate. Mono-culture of each cell populations were used as controls. DMSO or Debio-1143 (0, 1 and 10 μM) were added to mono- or co-cultures for 24 and 48 h. Cell killing was quantified by LDH activity.

`CN[C@@H](C)C(=O)N[C@H]1CN(C(=O)CC(C)C)CC[C@H]2CC[C@@H](C(=O)NC(c3ccccc3)c3ccccc3)N2C1=O` [Debio 1143, (5S,8S,10aR)-N-benzhydryl-5-((S)-2-(methylamino)propanamido)-3-(3-methylbutanoyl)-6-oxodecahydropyrrolo[1,2-a][1,5]diazocine-8-carboxamide] was tested, and the “influence of ART on the degree of latency reversal” value ([1]; in combination with ART (20 μM TDF, 10 μM FTC, 1 μM Raltegravir)) was “did not influence”, the “time after which reactivation was already maximal” value ([1]; resting CD4+ T cells from two HIV patients under ART) was at most 24 h and the “reactivation of latent HIV (HIV RNA copies/mL in supernatant)” value ([1]; resting CD4+ T cells from two HIV patients under ART, 0 to 20.5 μM, 0-72 h) was “possesses the capacity of reactivating latent HIV”. For the same compound, the “HIV titers in blood” value [2] was “increased viral titers”, the “HIV load in organs (viral RNA levels in organ reservoirs)” value ([3]; 2 weeks after treatment completion, CD4+ cells of spleen, thymic organoid, lung, lymph nodes, liver) was “has no effect” and the “Tissue HIV Load at Week 18, Liver” value ([3]; individual mice #1-5) was 5.2 Log Viral RNA Copies/100,000 CD4+ Cells and 4.2 Log Viral RNA Copies/100,000 CD4+ Cells and 4.9 Log Viral RNA Copies/100,000 CD4+ Cells and 5.5 Log Viral RNA Copies/100,000 CD4+ Cells and 5.9 Log Viral RNA Copies/100,000 CD4+ Cells. The “Tissue HIV Load at Week 18, Lung” value ([3]; individual mice #1-5) was 3.9 Log Viral RNA Copies/100,000 CD4+ Cells and 5.7 Log Viral RNA Copies/100,000 CD4+ Cells and 4.4 Log Viral RNA Copies/100,000 CD4+ Cells and 6.1 Log Viral RNA Copies/100,000 CD4+ Cells and 6.5 Log Viral RNA Copies/100,000 CD4+ Cells, the “Tissue HIV Load at Week 18, Lymph nodes” value ([3]; individual mice #1-5) was 4.4 Log Viral RNA Copies/100,000 CD4+ Cells and 5 Log Viral RNA Copies/100,000 CD4+ Cells and 5.3 Log Viral RNA Copies/100,000 CD4+ Cells and 6.3 Log Viral RNA Copies/100,000 CD4+ Cells and 7.2 Log Viral RNA Copies/100,000 CD4+ Cells and the “Tissue HIV Load at Week 18, Spleen” value ([3]; individual mice #1-5) was 4.4 Log Viral RNA Copies/100,000 CD4+ Cells and 6.4 Log Viral RNA Copies/100,000 CD4+ Cells and 5.2 Log Viral RNA Copies/100,000 CD4+ Cells and 5.5 Log Viral RNA Copies/100,000 CD4+ Cells and 6.7 Log Viral RNA Copies/100,000 CD4+ Cells. The “Tissue HIV Load at Week 18, Thymic organoid” value ([3]; individual mice #1-5) was 4.6 Log Viral RNA Copies/100,000 CD4+ Cells and 5.3 Log Viral RNA Copies/100,000 CD4+ Cells and 3.9 Log Viral RNA Copies/100,000 CD4+ Cells and 5.7 Log Viral RNA Copies/100,000 CD4+ Cells and 6.2 Log Viral RNA Copies/100,000 CD4+ Cells, the “Tissue HIV Load at Week 18, Liver” value ([3]; mean of 5 mice) was 5.14 Log Viral RNA Copies/100,000 CD4+ Cells and the “Tissue HIV Load at Week 18, Lung” value ([3]; mean of 5 mice) was 5.32 Log Viral RNA Copies/100,000 CD4+ Cells. For the same compound, the “Tissue HIV Load at Week 18, Lymph nodes” value ([3]; mean of 5 mice) was 5.64 Log Viral RNA Copies/100,000 CD4+ Cells, the “Tissue HIV Load at Week 18, Spleen” value ([3]; mean of 5 mice) was 5.64 Log Viral RNA Copies/100,000 CD4+ Cells and the “Tissue HIV Load at Week 18, Thymic organoid” value ([3]; mean of 5 mice) was 5.14 Log Viral RNA Copies/100,000 CD4+ Cells. The “HIV-1 latency reversal (GFP expression)” value [4] was “reversed HIV-1 latency”, the “potency as LRA compared with other LRAs” value [4] was “one of the most potent LRA” and the “cell killing (LDH activity)” value [5] was “Low cell death was observed in all mono- and co-cultures except for the rCD4:CD8+ T cells co-culture”.
